Assay type in all cases: in vivo
For test [1], the system named is primary care patients with major depression disorder. As to the kind of experiment: 8-week, double-blind, randomised, placebo-controlled, flexible-dose clinical study. The text has this:
(§1) This has i.a. been found in the Chronic Mild Stress model (Wiliner P., Psychopharmachology 1997, 134, 319-329).
A total of 471 patients were randomised into the study. The all-patient-treated set comprised 469 patients and the full-analysis set comprised 468 patients.
There was an approximately 3 to 1 ratio of women to men in each treatment group, and almost all patients were Caucasian. The mean age was 43 years (SD 11). At baseline, the mean MADRS total score was approximately 29 for the treatment group, which signifies moderate to severely ill patients.

A short description of test [2]: fixed dose studies (MADRS rating scale and Clinical Global Impression). The settings on record: escitalopram in a dose of 10 mg compared with citalopram 40 mg.
Test [3] has as its system Chronic Mild Stress model. The experiment in a line: Chronic Mild Stress model. The settings on record: animal models, compared with citalopram-racemate.
Excerpt: as §1

Test [4] in a line: pharmacological and clinical studies / animal models (summary statements). The text has this:
This may be shown in functional in-vivo pharmacological models and studies of 5-HT-reuptake effect and or in behavior models, for example depression models.

Here are results for one compound from patent US20040192765A1 (H. Lundbeck A/S, priority 2001, published 2004).

As to `CN(C)CCC[C@@]1(c2ccc(F)cc2)OCc2cc(C#N)ccc21` [escitalopram, (S)-1-[3-(dimethylamino)propyl]-1-(4-fluorophenyl)-1,3-dihydro-5-isobenzofurancarbonitrile], the onset of effect entry in test [1] (10 mg escitalopram, 20 mg citalopram, versus placebo) is “showed effects after one week”. For the same compound, the “adjusted mean change in MADRS total score versus placebo (significance)” value in test [1] (Week 1 (p=0.023) to Week 4 (p=0.002), observed cases) is reported as “significantly superior therapeutic effect”. Besides, the “CGI improvement and severity subscale versus placebo” value in test [1] (Week 4, last observation carried forward) is on record as “statistically significantly superior to placebo”; in test [1] (from Week 1 onwards (p<0.05), observed cases, 4-week period), “significantly superior to placebo”. In test [1] (Week 4, last observation carried forward, 10 mg escitalopram, 20 mg citalopram, escitalopram p=0.002, citalopram statistically insignificant), the “adjusted mean change in MADRS total score versus placebo” value was determined as 2.7 points. In test [2], the “effect as determined by MADRS rating scale and Clinical Global Impression (severity and improvement)” value is “at least same effect as citalopram in a dose of 40 mg”. In addition, in test [3], the speed of response result was “faster response than citalopram-racemate”. Moreover, the onset of action result in test [4] (animal models and clinical studies, compared with the racemate and other SSRIs) is recorded as “faster onset of action”. Further, the “potency relative to the racemate” value in test [4] (pharmacological and clinical studies) is recorded as “substantially more than two times as potent as the racemate”. The extent of response entry in test [4] (various animal models) is “more full response”.
